Data as given in publication PMC4718634, “Murine GPRC6A Mediates Cellular Responses to L-Amino Acids, but Not Osteocalcin Variants” (PLoS ONE, 2016).
“Also recorded” adds a separate entry of the source.

How the values were obtained:
[1] = target: T1, mGPRC6A (mouse GPRC6A) (Mus musculus, UniProt Q8K4Z6); assay: Cyclic AMP accumulation, FlpIn-TREx-HEK293-mGPRC6A cells; assay type: cell-based
T1 sequence (Q8K4Z6 21-928): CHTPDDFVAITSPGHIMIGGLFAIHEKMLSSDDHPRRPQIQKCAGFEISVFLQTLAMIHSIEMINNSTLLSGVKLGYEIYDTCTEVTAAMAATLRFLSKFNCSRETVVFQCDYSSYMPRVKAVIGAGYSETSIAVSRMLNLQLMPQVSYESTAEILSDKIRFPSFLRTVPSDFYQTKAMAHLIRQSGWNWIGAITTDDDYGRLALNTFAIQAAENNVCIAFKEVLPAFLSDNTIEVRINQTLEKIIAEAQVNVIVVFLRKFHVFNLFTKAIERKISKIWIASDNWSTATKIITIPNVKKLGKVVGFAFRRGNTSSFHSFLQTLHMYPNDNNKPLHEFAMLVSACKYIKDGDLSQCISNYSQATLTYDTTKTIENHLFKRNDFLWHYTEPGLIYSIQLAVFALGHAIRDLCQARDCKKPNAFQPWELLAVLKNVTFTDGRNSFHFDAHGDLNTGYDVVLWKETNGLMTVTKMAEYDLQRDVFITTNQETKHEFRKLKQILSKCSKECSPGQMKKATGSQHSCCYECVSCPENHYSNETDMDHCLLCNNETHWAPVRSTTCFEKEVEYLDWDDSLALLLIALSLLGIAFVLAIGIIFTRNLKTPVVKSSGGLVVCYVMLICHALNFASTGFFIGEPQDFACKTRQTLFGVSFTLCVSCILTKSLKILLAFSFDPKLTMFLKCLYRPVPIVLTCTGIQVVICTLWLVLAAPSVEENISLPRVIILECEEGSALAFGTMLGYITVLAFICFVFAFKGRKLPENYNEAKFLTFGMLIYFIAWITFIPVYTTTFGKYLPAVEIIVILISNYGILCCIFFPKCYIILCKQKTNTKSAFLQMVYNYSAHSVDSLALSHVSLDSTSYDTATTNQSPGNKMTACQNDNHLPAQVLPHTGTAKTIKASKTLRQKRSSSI
Protocol: pcDNA 5/FRT/TO constructs were isogenically integrated into a FlpIn-TREx-HEK293 cell line (Life Technologies). FlpIn-TREx-HEK293-mGPRC6A and FlpIn-TREx-HEK293-hGPRC6A cells were then selected using 600 μg/ml hygromycin and 5 μg/ml blasticidin and grown in culture medium consisting of Dulbecco’s Modified Eagle Medium (DMEM), supplemented with 10% (v/v) foetal bovine serum (FBS) at 37°C in 5% CO2 and were sub-cultured in a 1:3 ratio every 3–4 days. Cells were cultured overnight in the presence of 1 μg/ml tetracycline to induce GPRC6A expression. […] 48 h after transfection, cells were selected using 3 μg/ml puromycin and grown as above.
HEK293-mGPRC6A cells were seeded at a density of 10^5 cells per well into PDL-coated 96-well plates and incubated overnight in DMEM, supplemented with 10% FBS (v/v) at 37°C in 5% CO2. Cells were then incubated in 90 μl of stimulation buffer (HBSS containing 5 mM HEPES, 0.1% BSA (w/v), 0.5 mM IBMX; pH 7.4) for 30 min at 37°C. Test compounds (10 μl at 10 x final) were added and cells were incubated for an additional 30 min at 37°C. The medium was removed and cells were incubated in 50 μl of ice-cold 100% ethanol. Once evaporated, 100 μl of lysis buffer (5 mM HEPES, 0.1% BSA (w/v), 0.3% Tween-20; pH 7.4) was added to the cells and samples were stored at -20°C until further analysis. Samples were analysed using the Alphascreen® cAMP assay kit (Perkin Elmer) following manufacturer instructions. Briefly, 10 μl of lysates were added to a 384-well Optiplate. After addition of 5 μl of acceptor bead mix, plate was incubated at RT for 30 min followed by addition of 15 μl of donor bead mix. After overnight (16 h) incubation at RT, plates were read using the Envision plate reader.

[2] = test system: un-induced FlpIn-TREx-HEK293-mGPRC6A cells; assay: Label-free cell impedance, un-induced FlpIn-TREx-HEK293-mGPRC6A cells; assay type: cell-based; settings: Fig 4
Protocol: 2.5 x 10^7 FlpIn-TREx-HEK293-mGPRC6A cells were seeded in a T175 flask and incubated overnight at 37°C in 5% CO2. Cells were then transfected with 35 μg of plasmid DNA (GαqG66D) with Lipofectamine LTX according to manufacturer's instructions, then incubated for 24h at 37°C in 5% CO2. Prior to the experiment, a background reading for each E-plate 96 (Bio-Rad, CA, USA) was measured after addition of 100 μl DMEM + 10% FBS per well. Cells were recovered using Versene and seeded at a 10^5 cells/well density in 200 μl DMEM + 10% FBS (containing 1 μg/ml tetracycline where indicated). Cells were washed 2 x 2 h in HBSS buffer (pH 7.2) containing 20 mM HEPES, 1 mM CaCl2 and 0.1% BSA (w/v) in a total volume of 180 μl. Test compounds (20 μl at 10x final concentration) were added to the plate and cell impedance was monitored for 3 h. Cell index was normalised to the buffer response (minus the baseline response at zero time point).

[3] = test system: TC6; settings: endogenous; ref [11] (supplement list); cited from earlier work
Description: (§1) Supplement pone.0146846.s004.docx, table 1 | column: Functional assay

[4] = test system: hC6A; settings: ref [9] (supplement list); cited from earlier work
Description: as §1

[5] = test system: GPRC6A; settings: cited from earlier work
Description: (§2) Additional interest in GPRC6A has emerged due to several studies reporting that it mediates the metabolic and endocrine effects of the de-carboxylated form of the osteoblast-derived peptide, osteocalcin (OCN).

[6] = test system: immortalised cell lines; settings: blocked by siRNA targeting Gprc6a; ref [12], [22]; cited from earlier work
Description: as §2

[7] = test system: mice; settings: injected into the peritoneal cavity; WT vs Gprc6a KO mice; ref [12]; cited from earlier work
Description: as §2

[8] = test system: GPRC6A; settings: GPRC6A-expressing cell lines or mouse pancreatic islets; ref [29]; cited from earlier work
Description: (§3) The involvement of GPRC6A has been shown by transfection of receptor-specific siRNA, receptor blockade with a polyclonal antibody and, in the case of the islets, using tissue from KO mice.

[9] = test system: GPRC6A-expressing cell lines or mouse pancreatic islets; settings: ref [31]; cited from earlier work
Description: as §3

Row | cAMP response (summary) ([1]; S1 Table) | Compound | stimulation of cAMP accumulation ([1]; 30 min, 0.5 mM IBMX, Alphascreen, Fig 3A) | inhibition of forskolin-stimulated cAMP ([1]; forskolin 3 μM, Fig 3A) | cell impedance (cell index) response [2] | pERK1/2, pPKD1 response [3] | pERK1/2 response [4] | cAMP accumulation ([5]; GPRC6A-expressing cell lines or mouse pancreatic islets, ref [8], [30]) | OCN concentration stimulating cAMP accumulation ([5]; HEK293 transfected with GPRC6A, species not stated for receptor or peptide, ref [8]) [ng/mL] | OCN concentration promoting ERK1/2 phosphorylation ([5]; approx., HEK293 cells expressing GPRC6A, species not stated, ref [10], [12]) [ng/mL] | GLP-1 release [6] | circulating insulin levels [7] | intracellular calcium mobilisation [8] | β-cell proliferation [9]
1 | – | NCCC[C@H](N)C(=O)O [L-ornithine] | no detectable modulation of cAMP accumulation | neither L-ornithine nor OCN variants inhibited cAMP levels stimulated by forskolin; also recorded: Neither L-ornithine nor OCN variants inhibit | only mGPRC6A-expressing cells responded to L-ornithine; also recorded: increases cellular impedance only in tetracycline-induced cells | – | – | – | – | – | – | – | – | –
2 | no response | OCN: osteoblast-derived peptide, osteocalcin; variant not specified at the place (YLYQWLGAPVPYPDPLEPRREVCELNPDCDELADHIGFQEAYRRFYGPV; UniProt P02818 52-100, looked up) | – | – | – | pERK1/2, pPKD1 – response to OCN, L-Arg | pERK1/2 – response to Ca^2+, ZnCl2, OCN, Arginine, Testosterone-BSA | cAMP accumulation | 3 | 40 to 80 | OCN-mediated insulin and glucagon-like peptide (GLP)-1 release | increases circulating insulin levels in WT but not in Gprc6a KO mice | cause intracellular calcium mobilisation | increased β-cell proliferation
